Laboratory results taken from ChEMBL document CHEMBL4680361, “Degradation of Janus Kinase for Potential Application in Immune Response Therapeutics” (ACS Med Chem Lett, 2021).
Activity calls are given as the source filed them. The calls are words filed in the database; no cut-off is given here.

Columns and labels:
RS4-11 = assay: Cytotoxicity against human RS4-11 cells assessed as reduction in cell viability measured after 3 days by CellTiter-Glo assay; type: functional, cell-based; details: RS4-11, 72 h
[1] = target: Protein cereblon/Tyrosine-protein kinase JAK1 (Homo sapiens, UniProt P23458+Q96SW2); assay: Protac activity at CRBN/JAK1 in human RS4-11 cells assessed as degradation of JAK1 measured after 24 hrs by immunoblotting analysis; type: cell-based
IMR-90 = assay: Cytotoxicity against human IMR-90 cells assessed as effect on cell viability at 10^-10 to 10^-5 M measured after 3 days by CellTiter-Glo assay; type: cell-based; details: imr-90, 72 h, dose 0.0001-10 µM, time 3 day
HaCaT = assay: Cytotoxicity against human HaCaT cells assessed as effect on cell viability at 10^-10 to 10^-5 M measured after 3 days by CellTiter-Glo assay; type: cell-based; details: 72 h, dose 0.0001-10 µM, time 3 day
[2] = test system: Protein cereblon/Tyrosine-protein kinase JAK2 (Homo sapiens), O60674+Q96SW2 [UNDEFINED MUTATION]; assay: Protac activity at CRBN/JAK2 V617 mutant in human HEL cells assessed as decrease in JAK2 V617 mutant protein level at < 60 nM measured after 24 hrs by immunoblotting analysis; type: cell-based; details: dose nM <60, time 24.0 hrs
Chain of Protein cereblon/Tyrosine-protein kinase JAK2 (Homo sapiens), O60674+Q96SW2 [UNDEFINED MUTATION] (O60674 whole entry, looked up, change not shown): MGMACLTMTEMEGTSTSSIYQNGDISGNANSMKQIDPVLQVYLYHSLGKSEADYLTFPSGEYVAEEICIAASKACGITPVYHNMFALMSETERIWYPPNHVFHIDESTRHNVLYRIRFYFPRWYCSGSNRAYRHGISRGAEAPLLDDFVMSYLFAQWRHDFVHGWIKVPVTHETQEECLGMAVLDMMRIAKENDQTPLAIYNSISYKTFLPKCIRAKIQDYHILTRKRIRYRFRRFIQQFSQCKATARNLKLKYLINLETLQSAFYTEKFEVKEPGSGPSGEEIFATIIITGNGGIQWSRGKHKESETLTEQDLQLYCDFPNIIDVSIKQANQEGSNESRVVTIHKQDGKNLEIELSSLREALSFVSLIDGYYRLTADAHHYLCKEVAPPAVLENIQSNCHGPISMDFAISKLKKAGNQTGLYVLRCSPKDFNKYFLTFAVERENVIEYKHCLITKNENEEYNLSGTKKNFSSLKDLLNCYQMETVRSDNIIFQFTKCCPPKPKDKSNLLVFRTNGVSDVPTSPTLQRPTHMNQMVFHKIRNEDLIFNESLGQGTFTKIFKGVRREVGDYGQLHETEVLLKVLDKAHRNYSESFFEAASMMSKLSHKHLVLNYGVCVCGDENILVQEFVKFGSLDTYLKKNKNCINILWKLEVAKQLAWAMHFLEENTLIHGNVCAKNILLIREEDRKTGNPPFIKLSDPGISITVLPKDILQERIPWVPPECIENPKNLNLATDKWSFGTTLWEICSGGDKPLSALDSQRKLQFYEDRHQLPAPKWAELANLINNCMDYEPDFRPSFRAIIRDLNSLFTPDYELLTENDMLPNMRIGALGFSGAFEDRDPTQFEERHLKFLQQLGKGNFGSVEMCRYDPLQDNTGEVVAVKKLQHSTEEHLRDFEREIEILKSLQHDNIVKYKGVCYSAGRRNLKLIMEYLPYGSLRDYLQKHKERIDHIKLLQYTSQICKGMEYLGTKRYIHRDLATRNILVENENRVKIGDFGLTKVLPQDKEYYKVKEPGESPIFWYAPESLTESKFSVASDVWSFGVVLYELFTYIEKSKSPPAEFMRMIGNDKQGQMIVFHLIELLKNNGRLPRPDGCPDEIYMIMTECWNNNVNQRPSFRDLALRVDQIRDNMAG
Chain of Protein cereblon/Tyrosine-protein kinase JAK2 (Homo sapiens), O60674+Q96SW2 [UNDEFINED MUTATION] (Q96SW2 whole entry, looked up, change not shown): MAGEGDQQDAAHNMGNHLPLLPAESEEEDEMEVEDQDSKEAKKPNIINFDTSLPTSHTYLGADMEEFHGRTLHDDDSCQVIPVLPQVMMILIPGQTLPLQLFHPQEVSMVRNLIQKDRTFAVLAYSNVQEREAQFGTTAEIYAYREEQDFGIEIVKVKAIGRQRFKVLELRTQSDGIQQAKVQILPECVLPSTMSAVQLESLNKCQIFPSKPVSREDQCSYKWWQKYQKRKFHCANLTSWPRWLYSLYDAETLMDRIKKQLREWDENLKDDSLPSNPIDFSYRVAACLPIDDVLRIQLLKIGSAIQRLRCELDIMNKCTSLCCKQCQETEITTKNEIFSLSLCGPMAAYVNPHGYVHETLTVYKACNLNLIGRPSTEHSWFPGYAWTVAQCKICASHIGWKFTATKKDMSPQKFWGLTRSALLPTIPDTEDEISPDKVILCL

Chain of Protein cereblon/Tyrosine-protein kinase JAK1 (P23458 whole entry): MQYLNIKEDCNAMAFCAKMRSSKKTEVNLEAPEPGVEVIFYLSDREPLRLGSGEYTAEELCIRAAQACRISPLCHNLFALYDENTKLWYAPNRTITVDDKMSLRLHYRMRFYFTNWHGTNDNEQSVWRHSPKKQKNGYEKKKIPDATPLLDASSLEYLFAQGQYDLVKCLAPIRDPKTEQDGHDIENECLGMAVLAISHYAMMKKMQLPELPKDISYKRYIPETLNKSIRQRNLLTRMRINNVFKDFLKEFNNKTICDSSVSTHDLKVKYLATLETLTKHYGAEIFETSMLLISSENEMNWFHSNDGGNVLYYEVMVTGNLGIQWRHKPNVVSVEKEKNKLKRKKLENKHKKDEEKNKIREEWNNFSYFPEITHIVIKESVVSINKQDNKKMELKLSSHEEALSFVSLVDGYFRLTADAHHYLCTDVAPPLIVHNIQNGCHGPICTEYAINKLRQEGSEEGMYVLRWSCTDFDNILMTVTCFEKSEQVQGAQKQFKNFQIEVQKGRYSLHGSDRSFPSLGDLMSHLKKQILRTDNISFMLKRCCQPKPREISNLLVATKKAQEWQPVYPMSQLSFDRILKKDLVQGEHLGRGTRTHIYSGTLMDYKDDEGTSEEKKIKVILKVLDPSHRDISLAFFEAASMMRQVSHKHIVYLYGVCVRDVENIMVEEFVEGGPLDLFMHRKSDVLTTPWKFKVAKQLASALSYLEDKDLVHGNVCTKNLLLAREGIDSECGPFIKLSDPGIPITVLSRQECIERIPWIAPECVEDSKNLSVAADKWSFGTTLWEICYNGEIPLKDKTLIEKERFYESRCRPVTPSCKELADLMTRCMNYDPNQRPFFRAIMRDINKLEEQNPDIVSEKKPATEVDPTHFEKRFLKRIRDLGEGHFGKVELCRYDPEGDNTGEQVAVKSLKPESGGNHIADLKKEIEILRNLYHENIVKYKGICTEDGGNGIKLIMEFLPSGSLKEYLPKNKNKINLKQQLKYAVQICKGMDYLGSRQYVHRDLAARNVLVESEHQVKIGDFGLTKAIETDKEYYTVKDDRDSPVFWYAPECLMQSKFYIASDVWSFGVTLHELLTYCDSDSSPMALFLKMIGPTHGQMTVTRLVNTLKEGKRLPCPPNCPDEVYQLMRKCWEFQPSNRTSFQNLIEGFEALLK
Chain of Protein cereblon/Tyrosine-protein kinase JAK1 (Q96SW2 whole entry): as the sequence (Q96SW2 whole entry, looked up, change not shown) above

| SMILES | IC50 (RS4-11) [nM] | further results |
| --- | --- | --- |
| CS(=O)(=O)c1ccc(-c2cccc3nc(Nc4ccc(N5CCN(C(=O)CCCCCNc6ccc7c(c6)C(=O)N(C6CCC(=O)NC6=O)C7=O)CC5)cc4)nn23)cc1 (configuration not stated) | 7.3 | – |
| O=C1CCC(N2C(=O)c3ccc(NCCCCCC(=O)N4CCC(n5cc(-c6cnc7cccc(-c8cc(F)c(CN9CCOCC9)c(F)c8)c7n6)cn5)CC4)cc3C2=O)C(=O)N1 (configuration not stated) | 2.03 | DC50 [1]: < 5 nM; Activity (IMR-90): Non-Toxic; Activity (HaCaT): Non-Toxic |
| O=C1CCC(N2C(=O)c3ccc(NCCCCCCCC(=O)N4CCC(n5cc(-c6cnc7cccc(-c8cc(F)c(CN9CCOCC9)c(F)c8)c7n6)cn5)CC4)cc3C2=O)C(=O)N1 (configuration not stated) | 54.4 | – |
| O=C1CCC(N2C(=O)c3ccc(NCCCCC(=O)N4CCC(n5cc(-c6cnc7cccc(-c8cc(F)c(CN9CCOCC9)c(F)c8)c7n6)cn5)CC4)cc3C2=O)C(=O)N1 (configuration not stated) | 13.8 | – |
| CS(=O)(=O)c1ccc(-c2cccc3nc(Nc4ccc(N5CCN(C(=O)CCCCCOc6ccc7c(c6)CN(C6CCC(=O)NC6=O)C7=O)CC5)cc4)nn23)cc1 (configuration not stated) | 32.8 | – |
| CS(=O)(=O)c1ccc(-c2cccc3nc(Nc4ccc(N5CCN(C(=O)CCCCCCOc6ccc7c(c6)C(=O)N(C6CCC(=O)NC6=O)C7)CC5)cc4)nn23)cc1 (configuration not stated) | 5.4 | – |
| O=C1CCC(N2Cc3cc(OCCCCCC(=O)N4CCC(n5cc(-c6cnc7cccc(-c8cc(F)c(CN9CCOCC9)c(F)c8)c7n6)cn5)CC4)ccc3C2=O)C(=O)N1 (configuration not stated) | 3.6 | – |
| CS(=O)(=O)c1ccc(-c2cccc3nc(Nc4ccc(N5CCN(CC(=O)NCCCCCCCNc6ccc7c(c6)C(=O)N(C6CCC(=O)NC6=O)C7=O)CC5)cc4)nn23)cc1 (configuration not stated) | 63.5 | – |
| CS(=O)(=O)c1ccc(-c2cccc3nc(Nc4ccc(N5CCN(CC(=O)NCCCCCCCCNc6ccc7c(c6)C(=O)N(C6CCC(=O)NC6=O)C7=O)CC5)cc4)nn23)cc1 (configuration not stated) | 8.45 | DC50 [1]: < 35 nM; Activity (IMR-90): Non-Toxic; Activity (HaCaT): Non-Toxic; Activity [2]: Active |
| O=C1CCC(N2Cc3ccc(OCCCCCCC(=O)N4CCC(n5cc(-c6cnc7cccc(-c8cc(F)c(CN9CCOCC9)c(F)c8)c7n6)cn5)CC4)cc3C2=O)C(=O)N1 (configuration not stated) | 3.8 | – |
